Measurements as given in US11532406B2, “High specific activity preparation of F-18 tetrafluoroborate” (Mayo Foundation for Medical Education and Research, priority 2016, dated 2022).
Values joined by “and” are separate entries in the source; they are usually repeats but may differ in a detail not shown here. Identical values can stand only once. “Also recorded” adds a separate entry of the source. Marks after values point to notes of the source that are not given here.

Columns and labels:
[1] = Stability of ^18F-TFB (radio-TLC and anion chromatography HPLC); assay type: physicochemical
Protocol: The product ^18F-TFB was analyzed for radiochemical purity by both radio-TLC (MeOH, Rf=0.8-0.85) and anion chromatography HPLC with radioactivity detector (Dionex IC-2100, AS19 analytical column: 4.7×150 mm; eluent: 35 mM KOH; sample volume: 25.L; flow rate: 1 mL/min; retention times: 7.6 min for ^18F-TFB, […]). Chemical purity and specific activity were analyzed by anion chromatography HPLC (retention times: 3.5 min for fluoride, 4.3 min for chloride, and 7.6 min for BF4—). Residual organic solvents were analyzed by GC (helium carrier gas flow at 10 cc/min through a MXTWAX column (Restek, Bellefonte, Pa., 0.53 mm ID, 30 m length)).
After the synthesis, a sample was diluted with water for the analysis. With the eluent of methanol on silica gel plate, purities of >98% were obtained on the radio-TLC scanner.
^18F-TFB was prepared and formulated in sterile 0.9% NaCl under cGMP conditions as previously described (12). Decay-corrected radiochemical yields of 32±2% and radiochemical purities (RCPs) >98% were obtained. Specific radioactivity of 2.2±0.9 GBq/μmol was achieved from starting ^18F-fluoride radioactivity of 20-31 GBq. In vitro RCP remained >96% up to 8 h at room temperature.

[2] = system: hNIS-expressing C6 glioma xenograft; test: Dynamic PET imaging in hNIS-expressing C6 glioma xenografted athymic mice; assay type: in vivo
Protocol: Studies with mice were performed under approval of the Mayo Clinic Institutional Animal Care and Use Committee. Dynamic PET imaging was performed in hNIS-expressing C6 glioma xenografted athymic mice following retro-orbital injection ˜1.1 MBq Na ^18F-TFB at different specific activities (10-0.001 mg TFB/Kg mouse) to assess hNIS activity with ^18F-TFB. In this xenograft model, one flank has hNIS-negative C6 glioma tumor xenograft and the other flank had hNIS-expressing C6 glioma xenograft.
PET scans were acquired for 60 min followed by an X-ray scan using the GENISYS4 PET imaging system (Sofie Biosciences, CA). The images from 40 hNIS-expressing C6 glioma xenografted mice were analyzed for Standardized Uptake Value (SUV) in tumor, stomach, and thyroid using AMIDE image processing software (20). The SUV in tumor was normalized with SUV in stomach to account for difference in ^18F-TFB bioavailability in different animals due to competing uptake in normal organs like thyroid, salivary glands and stomach.

[3] = Estimated plasma / in vivo concentration of TFB after ~400 MBq ^18F-TFB; design: species or system human; conditions: specific activity of 8 GBq/μmol, ~400 MBq administered dose
[4] = Measurements in venous blood and urine samples, HPLC metabolite analysis; assay type: in vivo, human; conditions: for Urine (% Dose), Accumulative: end of study (~250 min)
Protocol: Urine was collected after each PET/CT scan (approximately 55, 160, 250 min), and venous blood samples were collected at 40, 145 and 235 min, post-injection, as shown in FIG. 13. Blood samples (3-4 mL) were collected in heparinized tubes and placed on ice. The blood samples were centrifuged at 3000 g for 5 min to obtain plasma. Urine was measured for urine volume and radioactivity concentration as measured in a calibrated gamma counter. Analysis for metabolites in plasma and urine was performed by ion-chromatography HPLC, allowing estimation of the fraction of radioactivity as nonmetabolized ^18F-TFB.

[5] = Safety measurements for ^18F-TFB administration (vital signs, clinical laboratory tests); assay type: in vivo, human
Protocol: Vital signs (heart rate, systolic and diastolic blood pressures, respiratory rate, and temperature) were measured prior to ^18F-TFB administration and at 45 and 240 min post-injection. Venous blood samples were taken prior to ^18F-TFB administration and at ˜240 min post-injection for a panel of clinical laboratory tests to evaluate the safety of the radiotracer administration.

[6] = C6-glioma xenograft mouse model, PET

In the case of `F[B-](F)(F)[18F]` [^18F-TFB, ^18F-tetrafluoroborate], the “HPLC analysis of the product sample, ^18F-TFB peak” value ([1]; after 20 h) is reported as “chemically stable”, the “radiochemical purity by radio-TLC after 20 h” value ([1]; after 20 h, sample diluted with water, silica gel, methanol) is reported as over 96% and the “In vitro RCP” value ([1]; up to 8 h at room temperature, in sterile 0.9% NaCl) is reported as over 96%. For the same compound, the “uptake by hNIS-expressing tumor versus specific activity” value ([2]; >13 MBq/μmol compared to 3 MBq/μmol) was “higher at high specific activity”, the “uptake in hNIS-negative tumors” value [2, 6] was “No uptake” and the “uptake in thyroid, stomach, bladder and hNIS-expressing tumors” value [2, 6] was “Robust uptake”. For the same compound, the “stomach uptake versus specific activity” value ([2]; mouse, in vivo) was “independent of specific activity”, the “stomach uptake over 60 min” value ([2]; over 60 min) was “linear increase” and the “uptake kinetic in thyroid and hNIS-expressing tumor” value ([2]; rapid uptake over first 10 min, slower until 30 min) was “bi-phasic kinetic”. The “estimated in vivo concentration of TFB” value [3] was about 0.02 µM, the “% Intact ^18F-TFB, Plasma” value ([4]; females, 40 min) was 97 ± 3^c % and the “Plasma (SUV)” value ([4]; females, 40 min) was 3.8 ± 1.0 SUV. The “Whole blood (SUV)” value ([4]; females, 40 min) was 3.1 ± 0.9 SUV, the “Urine (% Dose)” value ([4]; females, 40 min column (urine collected ~10 min later)) was 16 ± 3 % Dose and the “% Intact ^18F-TFB, Urine” value ([4]; females, 40 min column (urine ~10 min later)) was 98 ± 1%. The “Plasma (SUV)” value ([4]; females, 145 min) was 2.1 ± 0.5 SUV, the “Whole blood (SUV)” value ([4]; females, 145 min) was 1.7 ± 0.4 SUV and the “Urine (% Dose)” value ([4]; females, 145 min column (urine collected ~10 min later)) was 18 ± 3^ % Dose. The “% Intact ^18F-TFB, Urine” value ([4]; females, 145 min column (urine ~10 min later)) was 98 ± 1%, the “Plasma (SUV)” value ([4]; females, 235 min) was 1.7 ± 0.5 SUV and the “Whole blood (SUV)” value ([4]; females, 235 min) was 1.4 ± 0.4 SUV. The “Urine (% Dose)” value ([4]; females, 235 min column (urine collected ~10 min later)) was 12 ± 2 % Dose, the “% Intact ^18F-TFB, Urine” value ([4]; females, 235 min column (urine ~10 min later)) was 97 ± 2% and the “Urine (% Dose), Accumulative” value ([4]; females) was 47±7 % Dose. For the same compound, the “% Intact ^18F-TFB, Plasma” value ([4]; males, 40 min) was 97 ± 2%, the “Plasma (SUV)” value ([4]; males, 40 min) was 3.8 ± 0.2 SUV and the “Whole blood (SUV)” value ([4]; males, 40 min) was 3.0 ± 0.2 SUV. The “Urine (% Dose)” value ([4]; males, 40 min column (urine collected ~10 min later)) was 15 ± 2^b % Dose, the “% Intact ^18F-TFB, Urine” value ([4]; males, 40 min column (urine ~10 min later)) was 96 ± 2% and the “Plasma (SUV)” value ([4]; males, 145 min) was 2.8 ± 0.3 SUV. The “Whole blood (SUV)” value ([4]; males, 145 min) was 2.1 ± 0.2 SUV, the “Urine (% Dose)” value ([4]; males, 145 min column (urine collected ~10 min later)) was 13 ± 3 % Dose and the “% Intact ^18F-TFB, Urine” value ([4]; males, 145 min column (urine ~10 min later)) was 97 ± 2%. The “Plasma (SUV)” value ([4]; males, 235 min) was 2.0 ± 0.1 SUV, the “Whole blood (SUV)” value ([4]; males, 235 min) was 1.7 ± 0.2 SUV and the “Urine (% Dose)” value ([4]; males, 235 min column (urine collected ~10 min later)) was 10 ± 2^b % Dose. For the same compound, the “% Intact ^18F-TFB, Urine” value ([4]; males, 235 min column (urine ~10 min later)) was 98 ± 1%, the “Urine (% Dose), Accumulative” value ([4]; males) was 40±4 % Dose and 40 ± 4^b % Dose and the “^18F-labeled metabolites in blood and urine (HPLC)” value ([4]; over the length of the study (4 h)) was “insignificant”. For the same compound, the “radioactivity as metabolically intact ^18F-TFB in plasma” value ([4]; plasma samples at 40 min p.i.) was over 97%, the “clinical laboratory test values after administration” value ([5]; blood chemistries, electrolytes, liver and kidney functional tests, relative to baseline) was “No significant changes; also recorded: no significant findings” and the adverse effects ([5]; eight healthy participants) was “no adverse effects”. For the same compound, the tolerability of administration ([5]; healthy participants, 333-407 MBq intravenous) was “well-tolerated; also recorded: well tolerated” and the “vital signs after administration” value ([5]; heart rate, blood pressures, respiratory rate, before vs after administration) was “No significant changes; also recorded: no significant findings”.
